Source: paper PMC6602958, “Pharmacokinetics of anti-infectious reagents in silkworms” (Scientific Reports, 2019)
Converted amounts (≈) assume the structure as drawn. Read-outs that look alike come from different tables or passages of the source. Each block holds one compound with its values, some of them ahead of it.

Key:
Candida albicans [1] = test: Antifungal activity (MIC) by micro dilution with or without silkworm hemolymph; assay type: cell-based
Experimental: Antimicrobial and antifungal activities of each compound were measured by a micro dilution method[19],[20]. To measure protein binding to antifungal activity, silkworm hemolymph was collected by cutting the pseudopodium using scissors, and centrifuged at 3000 rpm for 5 min at 4 °C.

Candida albicans [2] = test: Silkworm infection model with Candida albicans (ED50); assay type: in vivo, Bombyx mori (silkworm); conditions: silkworm infection model with Candida albicans
[3] = human serum; ref Schafer-Korting et al. 27; cited from earlier work
[4] = Protein-binding capacity in silkworm hemolymph (filter unit, HPLC)
cytochrome P450 [5] = test: Decay of cytochrome P450 substrates in in vitro culture of the silkworm midgut (HPLC); conditions: for HPLC peak area of substrate, Sample 1 / HPLC peak area of substrate, Sample 2: midgut culture, raw data of Fig. 3
Experimental: Silkworm midgut was incubated in medium with cytochrome P450 substrates at 30 °C. The samples were collected, extracted by acetone, and evaporated. The amounts of substrates were determined by HPLC analysis.
Silkworms (5th instar, 5 days) were dissected in a buffer (10 mM HEPES/NaOH, 0.9% NaCl, pH 7.9), and isolated organs were incubated with 3 mL TC-100 medium containing 10% fetal bovine serum, 50 µg/ml gentamicin, and substrates for the metabolic reaction. Whole samples (medium and organ) were homogenized and extracted by equal volumes of acetone followed by evaporation. Extracted samples were dissolved in 50 mM NaOAc buffer and treated with beta-glucosidase to measure the fluorescence of metabolized 7-ethoxycoumarin[6]. […] Samples for HPLC were dissolved in 50% methanol. HPLC analysis was performed using a PEGASIL ODS SP column (φ4.5 mm × 250 mm) with isocratic elution at a flow rate of 1 ml/min.

cytochrome P450 [6] = test: Metabolism of luciferin derivatives in cultured silkworm midgut (P450-Glo, luminometer); assay type: in vitro ADME, Bombyx mori (silkworm); conditions: silkworm midgut incubated with luciferin substrate at 30 °C
cytochrome P450 [7] = test: Metabolism of luciferin-ME by microsomal fractions from the silkworm midgut; assay type: biochemical, Bombyx mori (silkworm); conditions: Lineweaver-Burk plot
Experimental: Silkworms were immersed in buffer (10 mM HEPES/NaOH, 0.9% NaCl, pH7.9), and organs were isolated and homogenized in a buffer (100 mM sodium phosphate, 1 mM EDTA, 2 mM benzamidine, 10% glycerol) by a glass-Teflon homogenizer. The tissue homogenates were centrifuged at 9000 × g for 10 min at 4 °C. The supernatant was further centrifuged at 49,000 rpm for 30 min at 4 °C. The precipitate was suspended in buffer (100 mM sodium phosphate, 1 mM EDTA, 2 mM benzamidine, 10% glycerol) and frozen at −80 °C after flash-freezing with liquid nitrogen until use.
Microsomes and substrates were suspended in final 0.25 ml buffer comprising 0.1 M sodium phosphate buffer (pH 7.5) and 0.1 mM EDTA, and pre-incubated for 5 min at 30 °C. A cytochrome P450 reaction was initiated by adding a NADPH-generating system containing 3.3 mM glucose-6-phosphate, 1.25 mM NADP, 3.3 mM MgCl2, and 0.25 U glucose-6-phosphate dehydrogenase as a final concentration.
Microsome fractions were prepared from the silkworm midgut, and incubated with luciferin-ME for 5 min at 30°C. The reactions were initiated by the addition of an NADPH-regeneration system. Production of luciferin was determined using a luminometer. (a) Titration of luciferin-ME. (b) Lineweaver Burk plot made from the titration curve.

[8] = design: method as in PMID 3210270; conditions: sheep, dose 10 mg/kg; cited from earlier work
[9] = Pharmacokinetics of antibiotics in silkworm hemolymph after injection (HPLC); conditions: for HPLC peak area in hemolymph: raw data of Fig. 1; for Cltot (total body clearance): silkworm, injection into hemolymph, dose per compound 10-50 mg/kg
Experimental: Antibiotics were injected into silkworm hemolymph and hemolymph was collected by cutting the legs at the indicated time.
Antibiotics dissolved in saline were injected into the hemolymph of 5th instar silkworms using a 1-mL syringe attached to a 27 G needle. Hemolymph was harvested from abdominal appendages by cutting them with scissors at the indicated time-points after administration, and mixed with an equal volume of acetone. Samples were centrifuged at 15,000 rpm for 5 min at 4 °C, and the supernatants were evaporated with a centrifuge evaporator[18]. The dried materials were dissolved in 50% methanol and filtrated through a 0.45-µm filter. […] The amount of antibiotics in the sample was quantified from the peak area of the chromatogram.

[10] = rabbit, dose 10 mg/kg; cited from earlier work
[11] = read-out: MIC with 10% hemolymph (B), with 10% silkworm hemolymph
[12] = without silkworm hemolymph, read-out: MIC without hemolymph (A)

SMILES: CC(=O)N1CCN(c2ccc(OCC3COC(Cn4ccnc4)(c4ccc(Cl)cc4Cl)O3)cc2)CC1 (stereo not drawn) [Ketoconazole]
Protein binding (%) mammal [3]: 99% | fraction unbound at 10 min, 10 µM [4]: < 0.01 | Protein-binding capacity in silkworm hemolymph (in words) ([4]; silkworm hemolymph): high protein-binding capacities in silkworm hemolymph | Metabolism in the silkworm midgut (in words) (cytochrome P450 [5]; in vitro organ culture, up to 20 h incubation): metabolized in the silkworm midgut | HPLC peak area of substrate, Sample 1 (cytochrome P450 [5]; 0 h): 250139 | HPLC peak area of substrate, Sample 2 (cytochrome P450 [5]; 0 h): 234783 | HPLC peak area of substrate, Sample 1 (cytochrome P450 [5]; 1 h): 277669 | HPLC peak area of substrate, Sample 2 (cytochrome P450 [5]; 1 h): 251170 | HPLC peak area of substrate, Sample 1 (cytochrome P450 [5]; 4 h): 205212 | HPLC peak area of substrate, Sample 2 (cytochrome P450 [5]; 4 h): 213216 | HPLC peak area of substrate, Sample 1 (cytochrome P450 [5]; 20 h): 217123 | HPLC peak area of substrate, Sample 2 (cytochrome P450 [5]; 20 h): 164912 | MIC (Candida albicans [1]; [11]): 1.3 µg/mL (≈ 2.45 µM) | MIC (Candida albicans [1]; [12]): 0.04 µg/mL (≈ 0.0753 µM) | ED50 (Candida albicans [2]): > 10 mg/kg

SMILES: CN(C)[C@@H]1C(O)=C(C(N)=O)C(=O)[C@@]2(O)C(O)=C3C(=O)c4c(O)cccc4[C@@](C)(O)[C@H]3C[C@@H]12 [Tetracycline]
HPLC peak area in hemolymph ([9]; 0.1 min after injection): 10505876 | HPLC peak area in hemolymph ([9]; 1 min after injection): 8079061 | HPLC peak area in hemolymph ([9]; 5 min after injection): 4188656 | HPLC peak area in hemolymph ([9]; 10 min after injection): 3076056 | HPLC peak area in hemolymph ([9]; 20 min after injection): 2727973 | HPLC peak area in hemolymph ([9]; 30 min after injection): 1928231 | HPLC peak area in hemolymph ([9]; 60 min after injection): 2239912 | HPLC peak area in hemolymph ([9]; 90 min after injection): 1941121 | HPLC peak area in hemolymph ([9]; 120 min after injection): 1803643 | HPLC peak area in hemolymph ([9]; 180 min after injection): 1414738 | HPLC peak area in hemolymph ([9]; 240 min after injection): 1202608 | Time-course of the decrease in concentration in hemolymph (in words) ([9]; after administration into hemolymph, alpha and beta phase, two-compartment model): biphasic | Cltot (total body clearance) ([9]; two-compartment model): 0.07 mL/g/h | Cltot [10]: 0.35 mL/g/h

Second part, led by results:

fraction unbound at 10 min, 10 µM (in vitro): < 0.01
SMILES: Clc1ccccc1C(c1ccccc1)(c1ccccc1)n1ccnc1 [Clotrimazole]
MIC (Candida albicans [1]; [11]): 1.3 µg/mL (≈ 3.77 µM) | MIC (Candida albicans [1]; [12]): 0.04 µg/mL (≈ 0.116 µM) | ED50 (Candida albicans [2]): > 10 mg/kg

Production of luciferin (RFU/organ) (cytochrome P450 [6]): 58,500 RFU/organ | Km (cytochrome P450 [7]): 7.8 µM
SMILES: COc1ccc2nc(C3=NC(C(=O)O)CS3)sc2c1 (stereo not drawn) [Luciferin-ME]
Vmax (cytochrome P450 [7]): 3.0 pmol/min/mg protein

Difference in total clearance between silkworm and mammal ([9]; silkworm (Bombyx mori), in vivo): 10 fold
SMILES: CO[C@H]1/C=C/O[C@@]2(C)Oc3c(C)c(O)c4c(O)c(c(/C=N/N5CCN(C)CC5)c(O)c4c3C2=O)NC(=O)/C(C)=C\C=C\[C@H](C)[C@H](O)[C@@H](C)[C@@H](O)[C@@H](C)[C@H](OC(C)=O)[C@@H]1C [Rifampicin]
Cltot [8]: 0.31 mL/g/h | Vdss [8]: 1.3 mL/g | HPLC peak area in hemolymph ([9]; 1 min after injection): 1080705 | HPLC peak area in hemolymph ([9]; 10 min after injection): 246911 | HPLC peak area in hemolymph ([9]; 30 min after injection): 125859 | HPLC peak area in hemolymph ([9]; 45 min after injection): 103195 | HPLC peak area in hemolymph ([9]; 75 min after injection): 64446 | HPLC peak area in hemolymph ([9]; 90 min after injection): 59307 | HPLC peak area in hemolymph ([9]; 150 min after injection): 20209 | HPLC peak area in hemolymph ([9]; 180 min after injection): 11026 | HPLC peak area in hemolymph ([9]; 240 min after injection): 4977 | HPLC peak area in hemolymph ([9]; 360 min after injection): 2816 | Time-course of the decrease in concentration in hemolymph (in words) ([9]; in vivo): biphasic | Cltot (total body clearance) ([9]; two-compartment model): 2.11 mL/g/h
